Data reported in patent US8338594B2, “Pyrrolotriazine derivatives useful for treating cancer through inhibition of aurora kinase” (Bayer HealthCare LLC, priority 2005, dated 2012).

Tests used:
[1] = molecular target: T1, murine Aurora Kinase 1 (mAur1) (Mus musculus, UniProt O70126); assay: murine Aurora Kinase 1 (mAur1) biochemical Scintillation Proximity Assay; settings: SPA, biotinylated Peptide 830, 1 μM ATP, 12 nM GST-tagged mAur 1 co-expressed with human INCENP
T1 construct: recombinant, GST-tagged mAur 1 (amino acids 67-345) that was co-expressed with human INCENP; GST; made in house
Protocol: (§1) Using a Scintillation Proximity Assay (SPA) format, the murine Aurora Kinase 1 (mAur1) and murine Aurora Kinase 2 (mAur2) biochemical assay measures the ability of mAur2 to phosphorylate the substrate, biotinylated Peptide 830 (DRT, Protein Sciences). Once radiolabeled by the enzyme, the biotinylated substrate is captured on streptavidin-coated SPA beads and the radioactivity, in proximity to the SPA beads, is measured. For the generation of IC50 curves, the reaction was performed in 96-well isoplates (Wallac 1450-514) under the following conditions: a 10 mM stock solution of compound (in 100% dimethylsulfoxide; DMSO) was diluted 10 fold in 100% DMSO. Compounds were then serially diluted, 1:5, for an eight point dose curve, in 100% DMSO. A volume of 1 μL of the diluted compound was added to the reaction buffer that consisted of 25 mM HEPES pH 7.5, 1 mM MnCl2, 1 mM MgCl2, 1 mM DTT, 0.01% Tween20. A mixture with a final concentration per well of 1 μM cold ATP, 0.1 μCi ^33P-ATP (Amersham AH9968) and 1 μM biotinylated Peptide 830 was then added. The reaction was initiated with the addition of either recombinant, GST-tagged mAur 1 (amino acids 67-345) that was co-expressed with human INCENP (amino acids 704-919) (DRT, Protein Sciences) at a final concentration of 12 nM or N-terminal His-tagged mAur2 (amino acids 98-395; DRT, Protein Sciences) at a final concentration of 20 nM. The final reaction volume in each well was 100 μL and the final compound concentration ranged from 10 μM-[…] in 1% DMSO. The reaction mixture was allowed to incubate for 1-2 hours with gentle agitation at 25° C. To terminate the reaction, streptavidin-coated SPA beads (Amersham RPNQ0007; 50 μL of 0.5 mg beads dissolved in 165 mM EDTA) were then added to each well and incubation proceeded for an additional 15 minutes at 25° C. The plate was then centrifuged for ten minutes at 2000 rpm. Phosphorylation of the peptide substrate was measured using a Wallac 1450 Microbeta Plus Liquid Scintillation Counter.

[2] = molecular target: T2, murine Aurora Kinase 2 (mAur2) (Mus musculus, UniProt P97477); assay: murine Aurora Kinase 2 (mAur2) biochemical Scintillation Proximity Assay; settings: SPA, biotinylated Peptide 830, 1 μM ATP, 20 nM His-tagged mAur2
T2 construct: N-terminal His-tagged mAur2 (amino acids 98-395; DRT, Protein Sciences); His (N); made in house
T2 sequence (P97477 98-395): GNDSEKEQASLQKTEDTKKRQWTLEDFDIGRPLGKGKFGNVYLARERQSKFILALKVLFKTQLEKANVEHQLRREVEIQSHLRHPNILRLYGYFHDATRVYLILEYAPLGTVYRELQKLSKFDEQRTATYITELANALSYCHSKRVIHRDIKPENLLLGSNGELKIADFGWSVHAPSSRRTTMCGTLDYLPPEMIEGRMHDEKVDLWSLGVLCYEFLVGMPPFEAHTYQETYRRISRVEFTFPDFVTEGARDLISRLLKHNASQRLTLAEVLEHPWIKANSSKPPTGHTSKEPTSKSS
Protocol: as §1

T1 sequence (O70126 67-345): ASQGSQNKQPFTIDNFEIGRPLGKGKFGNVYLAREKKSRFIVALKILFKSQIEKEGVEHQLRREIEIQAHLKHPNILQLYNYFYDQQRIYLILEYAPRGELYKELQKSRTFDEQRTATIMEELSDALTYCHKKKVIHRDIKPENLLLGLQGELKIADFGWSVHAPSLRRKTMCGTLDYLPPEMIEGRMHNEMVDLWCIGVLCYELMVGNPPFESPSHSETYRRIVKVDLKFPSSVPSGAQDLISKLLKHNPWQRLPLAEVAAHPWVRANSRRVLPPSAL
T1 sequence (Q9NQS7 704-918 partner): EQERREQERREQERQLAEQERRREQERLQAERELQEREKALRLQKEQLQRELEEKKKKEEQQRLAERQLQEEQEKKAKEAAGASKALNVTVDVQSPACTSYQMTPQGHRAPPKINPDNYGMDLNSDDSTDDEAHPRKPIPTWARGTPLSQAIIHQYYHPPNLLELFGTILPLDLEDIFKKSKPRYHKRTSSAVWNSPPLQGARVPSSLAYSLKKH

| Compound | IC50 [1] [µM] | IC50 [2] [µM] |
| --- | --- | --- |
| CN(C)C(=O)c1cn2ncnc(N)c2c1-c1ccc(Nc2nc3cc(F)cc(F)c3[nH]2)cc1 [Example 74, 4-amino-5-{4-[(5,7-difluoro-1H-benzimidazol-2-yl)amino]phenyl}-N,N-dimethylpyrrolo[2,1-f][1,2,4]triazine-6-carboxamide] | < 0.1 | < 0.1 |
| COCCNC(=O)c1cn2ncnc(N)c2c1-c1ccc(Nc2nc3cc(F)cc(F)c3[nH]2)cc1 [Example 75, 4-amino-5-{4-[(5,7-difluoro-1H-benzimidazol-2-yl)amino]phenyl}-N-(2-methoxyethyl)pyrrolo[2,1-f][1,2,4]triazine-6-carboxamide] | < 0.1 | < 0.1 |
| Nc1ncnn2cc(C(=O)N3CCOCC3)c(-c3ccc(Nc4nc5cc(F)cc(F)c5[nH]4)cc3)c12 [Example 76, 5-{4-[(5,7-difluoro-1H-benzimidazol-2-yl)amino]phenyl}-6-(morpholin-4-ylcarbonyl)pyrrolo[2,1-f][1,2,4]triazin-4-amine] | < 0.1 | < 0.1 |
| Nc1ncnn2cc(C(=O)NCC3CC3)c(-c3ccc(Nc4nc5cc(F)cc(F)c5[nH]4)cc3)c12 [Example 80, 4-amino-N-(cyclopropylmethyl)-5-{4-[(5,7-difluoro-1H-benzimidazol-2-yl)amino]phenyl}pyrrolo[2,1-f][1,2,4]triazine-6-carboxamide] | < 0.1 | < 0.1 |
| NC(=O)C1CCN(C(=O)c2cn3ncnc(N)c3c2-c2ccc(Nc3nc4cc(F)cc(F)c4[nH]3)cc2)CC1 [Example 81, 1-[(4-amino-5-{4-[(5,7-difluoro-1H-benzimidazol-2-yl)amino]phenyl}pyrrolo[2,1-f][1,2,4]triazin-6-yl)carbonyl]piperidine-4-carboxamide] | < 0.1 | < 0.1 |
| Nc1ncnn2cc(C(=O)NC3CCCC3)c(-c3ccc(Nc4nc5cc(F)cc(F)c5[nH]4)cc3)c12 [Example 85, 4-amino-N-cyclopentyl-5-{4-[(5,7-difluoro-1H-benzimidazol-2-yl)amino]phenyl}pyrrolo[2,1-f][1,2,4]triazine-6-carboxamide] | < 0.1 | < 0.1 |
| CCN(C)C(=O)c1cn2ncnc(N)c2c1-c1ccc(Nc2nc3cc(F)cc(F)c3[nH]2)cc1 [Example 89, 4-amino-5-{4-[(5,7-difluoro-1H-benzimidazol-2-yl)amino]phenyl}-N-ethyl-N-methylpyrrolo[2,1-f][1,2,4]triazine-6-carboxamide] | < 0.1 | < 0.1 |
| CCN(C(=O)c1cn2ncnc(N)c2c1-c1ccc(Nc2nc3cc(F)cc(F)c3[nH]2)cc1)C(C)C [Example 90, 4-amino-5-{4-[(5,7-difluoro-1H-benzimidazol-2-yl)amino]phenyl}-N-ethyl-N-isopropylpyrrolo[2,1-f][1,2,4]triazine-6-carboxamide] | < 0.1 | < 0.1 |
| COCC1CCCN1C(=O)c1cn2ncnc(N)c2c1-c1ccc(Nc2nc3cc(F)cc(F)c3[nH]2)cc1 (stereo not shown) [Example 91, 5-{4-[(5,7-difluoro-1H-benzimidazol-2-yl)amino]phenyl}-6-{[2-(methoxymethyl)pyrrolidin-1-yl]carbonyl}pyrrolo[2,1-f][1,2,4]triazin-4-amine] | < 0.1 | < 0.1 |
| CC(C)N(C)C(=O)c1cn2ncnc(N)c2c1-c1ccc(Nc2nc3cc(F)cc(F)c3[nH]2)cc1 [Example 92, 4-amino-5-{4-[(5,7-difluoro-1H-benzimidazol-2-yl)amino]phenyl}-N-isopropyl-N-methylpyrrolo[2,1-f][1,2,4]triazine-6-carboxamide] | < 0.1 | < 0.1 |
| CCCN(C)C(=O)c1cn2ncnc(N)c2c1-c1ccc(Nc2nc3cc(F)cc(F)c3[nH]2)cc1 [Example 93, 4-amino-5-{4-[(5,7-difluoro-1H-benzimidazol-2-yl)amino]phenyl}-N-methyl-N-propylpyrrolo[2,1-f][1,2,4]triazine-6-carboxamide] | < 0.1 | < 0.1 |
